Data from US10588317B2, “Isoxazoline-substituted benzamides and analogues as insecticides” (priority 2015, dated 2020).

How the values were obtained:
Type in all cases: in vivo
Myzus persicae = Myzus persicae (green peach aphid): feeding/contact activity; settings: 144 h, application rate 200 ppm, aphid population of mixed ages, 6 days after infestation, read-out: mortality
Experimental: (§1) Sunflower leaf discs were placed onto agar in a 24-well microtiter plate and sprayed with aqueous test solutions prepared from 10'000 ppm DMSO stock solutions. After drying, the leaf discs were infested with an aphid population of mixed ages. The samples were assessed for mortality 6 days after infestation.

Diabrotica balteata = Diabrotica balteata (corn root worm), sprayed maize sprouts; settings: 96 h, application rate 200 ppm, L2 larvae, 4 days after infestation, read-out: effect in at least one of the two categories (mortality or growth inhibition)
Method in brief: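 Read-out at 4 days post-infestation: mortality and growth inhibition relative to untreated samples. Test solutions (200 ppm, from DMSO stocks) were sprayed onto agar-held maize sprouts, which after drying received 6–10 L2 larvae per well.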

Spodoptera littoralis [1] = assay: Spodoptera littoralis (Egyptian cotton leaf worm), sprayed cotton leaf discs; settings: foliar, 72 h, application rate 200 ppm, L1 larvae, 3 days after infestation, read-out: control (mortality, anti-feeding effect, growth inhibition)
Method in brief: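 Five first-instar larvae placed on dried cotton leaf discs (on agar) previously sprayed with aqueous dilutions of 10'000 ppm DMSO stocks. Scored at 3 days against untreated discs for mortality, feeding inhibition and growth inhibition; any category above untreated counts as control.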

Plutella xylostella = Plutella xylostella (diamond back moth), artificial diet; settings: 120 h, application rate 200 ppm, L2 larvae, 5 days after infestation, read-out: effect in at least one of the two categories (mortality or growth inhibition)
Method in brief: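 L2 larvae (10-15 per well) fed on compound-treated, dried artificial diet; test solutions diluted in water from 10'000 ppm DMSO stocks. Readout 5 days post-infestation as mortality or growth inhibition versus untreated diet, with at least 80% effect at 200 ppm as threshold.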

Spodoptera littoralis [2] = assay: Spodoptera littoralis (Egyptian cotton leaf worm), uptake by lettuce roots from agar; settings: 144 h, read-out: effect in at least one of the three categories (mortality, anti-feeding, or growth inhibition)
Method in brief: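 Systemic test: Spodoptera eggs placed on lettuce leaves from seedlings raised 7 days on agar containing the compound (diluted from 10'000 ppm DMSO stock). Six days after infestation, larvae scored against untreated controls for mortality, feeding deterrence and growth inhibition.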

Thrips tabaci = Thrips tabaci (onion thrips): feeding/contact activity; settings: 144 h, application rate 200 ppm, Thrips population of mixed ages, 6 days after infestation, read-out: mortality
Experimental: as §1, with “on” for “onto”, “in” for “in a”, “plates” for “plate”, “drying” for “drying,”, “a Thrips” for “an aphid”

Tetranychus urticae = Tetranychus urticae (two-spotted spider mite): feeding/contact activity; settings: 192 h, application rate 200 ppm, mixed population (mobile stages), 8 days after infestation, read-out: mortality
Experimental: Bean leaf discs on agar in 24-well microtiter plates were sprayed with aqueous test solutions prepared from 10'000 ppm DMSO stock solutions. After drying the leaf discs were infested with a mite population of mixed ages. The samples were assessed for mortality on mixed population (mobile stages) 8 days after infestation.

Euschistus heros = Euschistus heros (neotropical brown stink bug), sprayed soybean leaves; settings: 120 h, application rate 200 ppm, N2 nymphs, 5 days after infestation, read-out: effect in at least one of the two categories (mortality or growth inhibition)
Method in brief: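 Scored 5 days post-infestation versus untreated controls, for both mortality and growth inhibition: N2 nymphs placed on agar-mounted soybean leaves previously sprayed at 200 ppm with aqueous test solutions from DMSO stocks and left to dry.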

CCNS(=O)(=O)N1CC(NC(=O)c2ccc(C3=NO[C@@](c4cc(Cl)c(F)c(Cl)c4)(C(F)(F)F)C3)cc2C)CO1 (stereo partly shown) [Compound A95]
≥ 80%: mortality at 200 ppm (Myzus persicae) | percent effect (mortality or growth inhibition) at 200 ppm (Diabrotica balteata) | mortality at 200 ppm (Spodoptera littoralis [1]) | percent effect (mortality or growth inhibition) at 200 ppm (Plutella xylostella) | percent control (mortality, anti-feedant effect or growth inhibition) at 12.5 ppm (Spodoptera littoralis [2]) | mortality at 200 ppm (Thrips tabaci) | mortality at 200 ppm (Tetranychus urticae) | percent effect (mortality or growth inhibition) at 200 ppm (Euschistus heros)

Cc1cc(C2=NO[C@@](c3cc(Cl)c(F)c(Cl)c3)(C(F)(F)F)C2)ccc1C(=O)NC1CON(S(=O)(=O)NC(C)(C)C)C1 (stereo partly shown) [Compound A97]
≥ 80%: mortality at 200 ppm (Myzus persicae) | percent effect (mortality or growth inhibition) at 200 ppm (Diabrotica balteata) | mortality at 200 ppm (Spodoptera littoralis [1]) | percent effect (mortality or growth inhibition) at 200 ppm (Plutella xylostella) | percent control (mortality, anti-feedant effect or growth inhibition) at 12.5 ppm (Spodoptera littoralis [2]) | mortality at 200 ppm (Thrips tabaci) | mortality at 200 ppm (Tetranychus urticae) | percent effect (mortality or growth inhibition) at 200 ppm (Euschistus heros)

CCN(CC)S(=O)(=O)N1CC(NC(=O)c2ccc(C3=NO[C@@](c4cc(Cl)c(F)c(Cl)c4)(C(F)(F)F)C3)cc2C)CO1 (stereo partly drawn) [Compound A98, 4-[(5S)-5-(3,5-dichloro-4-fluoro-phenyl)-5-(trifluoromethyl)-4H-isoxazol-3-yl]-N-[2-(diethylsulfamoyl)isoxazolidin-4-yl]-2-methyl-benzamide]
≥ 80%: mortality at 200 ppm (Myzus persicae) | percent effect (mortality or growth inhibition) at 200 ppm (Diabrotica balteata) | mortality at 200 ppm (Spodoptera littoralis [1]) | percent effect (mortality or growth inhibition) at 200 ppm (Plutella xylostella) | percent control (mortality, anti-feedant effect or growth inhibition) at 12.5 ppm (Spodoptera littoralis [2]) | mortality at 200 ppm (Thrips tabaci) | mortality at 200 ppm (Tetranychus urticae) | percent effect (mortality or growth inhibition) at 200 ppm (Euschistus heros)

C=CCNS(=O)(=O)N1CC(NC(=O)c2ccc(C3=NO[C@@](c4cc(Cl)c(F)c(Cl)c4)(C(F)(F)F)C3)cc2C)CO1 (stereo partly shown) [Compound A105]
≥ 80%: mortality at 200 ppm (Myzus persicae) | percent effect (mortality or growth inhibition) at 200 ppm (Diabrotica balteata) | mortality at 200 ppm (Spodoptera littoralis [1]) | percent effect (mortality or growth inhibition) at 200 ppm (Plutella xylostella) | percent control (mortality, anti-feedant effect or growth inhibition) at 12.5 ppm (Spodoptera littoralis [2]) | mortality at 200 ppm (Thrips tabaci) | mortality at 200 ppm (Tetranychus urticae) | percent effect (mortality or growth inhibition) at 200 ppm (Euschistus heros)

CN(C)S(=O)(=O)N1C[C@@H](NC(=O)c2ccc(C3=NO[C@@](c4cc(Cl)c(F)c(Cl)c4)(C(F)(F)F)C3)cc2Cl)CO1 [Compound A107]
≥ 80%: mortality at 200 ppm (Myzus persicae) | percent effect (mortality or growth inhibition) at 200 ppm (Diabrotica balteata) | mortality at 200 ppm (Spodoptera littoralis [1]) | percent effect (mortality or growth inhibition) at 200 ppm (Plutella xylostella) | percent control (mortality, anti-feedant effect or growth inhibition) at 12.5 ppm (Spodoptera littoralis [2]) | mortality at 200 ppm (Thrips tabaci) | mortality at 200 ppm (Tetranychus urticae) | percent effect (mortality or growth inhibition) at 200 ppm (Euschistus heros)

CN(C)S(=O)(=O)N1C[C@@H](NC(=O)c2ccc(C3=NO[C@@](c4cc(Cl)cc(C(F)(F)F)c4)(C(F)(F)F)C3)cc2Cl)CO1 [Compound A108]
≥ 80%: mortality at 200 ppm (Myzus persicae) | percent effect (mortality or growth inhibition) at 200 ppm (Diabrotica balteata) | mortality at 200 ppm (Spodoptera littoralis [1]) | percent effect (mortality or growth inhibition) at 200 ppm (Plutella xylostella) | percent control (mortality, anti-feedant effect or growth inhibition) at 12.5 ppm (Spodoptera littoralis [2]) | mortality at 200 ppm (Thrips tabaci) | mortality at 200 ppm (Tetranychus urticae) | percent effect (mortality or growth inhibition) at 200 ppm (Euschistus heros)

CN(C)S(=O)(=O)N1C[C@@H](NC(=O)c2ccc(C3=NO[C@@](c4cc(Cl)c(Cl)c(Cl)c4)(C(F)(F)F)C3)cc2Cl)CO1 [Compound A109, 2-chloro-N-[(4R)-2-(dimethylsulfamoyl)isoxazolidin-4-yl]-4-[(5S)-5-(3,4,5-trichlorophenyl)-5-(trifluoromethyl)-4H-isoxazol-3-yl]benzamide]
≥ 80%: mortality at 200 ppm (Myzus persicae) | percent effect (mortality or growth inhibition) at 200 ppm (Diabrotica balteata) | mortality at 200 ppm (Spodoptera littoralis [1]) | percent effect (mortality or growth inhibition) at 200 ppm (Plutella xylostella) | percent control (mortality, anti-feedant effect or growth inhibition) at 12.5 ppm (Spodoptera littoralis [2]) | mortality at 200 ppm (Thrips tabaci) | mortality at 200 ppm (Tetranychus urticae) | percent effect (mortality or growth inhibition) at 200 ppm (Euschistus heros)

Cc1cc(C2=NO[C@@](c3cccc(C(F)(F)F)c3)(C(F)(F)F)C2)ccc1C(=O)N[C@H]1CON(S(=O)(=O)N(C)C)C1 [Compound A111]
≥ 80%: mortality at 200 ppm (Myzus persicae) | percent effect (mortality or growth inhibition) at 200 ppm (Diabrotica balteata) | mortality at 200 ppm (Spodoptera littoralis [1]) | percent effect (mortality or growth inhibition) at 200 ppm (Plutella xylostella) | percent effect (mortality, anti-feeding or growth inhibition) at 12.5 ppm (Spodoptera littoralis [2]; test rate 12.5 ppm, eggs, 6 days after infestation) | mortality at 200 ppm (Thrips tabaci) | mortality at 200 ppm (Tetranychus urticae) | percent effect (mortality or growth inhibition) at 200 ppm (Euschistus heros)

CCNS(=O)(=O)N1C[C@@H](NC(=O)c2ccc(C3=NO[C@@](c4cc(Cl)cc(Cl)c4)(C(F)(F)F)C3)cc2Cl)CO1 [Compound A113, 2-chloro-4-[(5S)-5-(3,5-dichlorophenyl)-5-(trifluoromethyl)-4H-isoxazol-3-yl]-N-[(4R)-2-(ethylsulfamoyl)isoxazolidin-4-yl]benzamide]
≥ 80%: mortality at 200 ppm (Myzus persicae) | percent effect (mortality or growth inhibition) at 200 ppm (Diabrotica balteata) | mortality at 200 ppm (Spodoptera littoralis [1]) | percent effect (mortality or growth inhibition) at 200 ppm (Plutella xylostella) | percent control (mortality, anti-feedant effect or growth inhibition) at 12.5 ppm (Spodoptera littoralis [2]) | mortality at 200 ppm (Thrips tabaci) | mortality at 200 ppm (Tetranychus urticae) | percent effect (mortality or growth inhibition) at 200 ppm (Euschistus heros)

CNS(=O)(=O)N1C[C@@H](NC(=O)c2ccc(C3=NO[C@@](c4cc(Cl)cc(Cl)c4)(C(F)(F)F)C3)cc2Cl)CO1 [Compound A114, 2-chloro-4-[(5S)-5-(3,5-dichlorophenyl)-5-(trifluoromethyl)-4H-isoxazol-3-yl]-N-[(4R)-2-(methylsulfamoyl)isoxazolidin-4-yl]benzamide]
≥ 80%: mortality at 200 ppm (Myzus persicae) | percent effect (mortality or growth inhibition) at 200 ppm (Diabrotica balteata) | mortality at 200 ppm (Spodoptera littoralis [1]) | percent effect (mortality or growth inhibition) at 200 ppm (Plutella xylostella) | percent control (mortality, anti-feedant effect or growth inhibition) at 12.5 ppm (Spodoptera littoralis [2]) | mortality at 200 ppm (Thrips tabaci) | mortality at 200 ppm (Tetranychus urticae) | percent effect (mortality or growth inhibition) at 200 ppm (Euschistus heros)

CNS(=O)(=O)N1C[C@@H](NC(=O)c2ccc(C3=NO[C@@](c4cc(Cl)cc(C(F)(F)F)c4)(C(F)(F)F)C3)cc2Cl)CO1 [Compound A115, 2-chloro-4-[(5S)-5-[3-chloro-5-(trifluoromethyl)phenyl]-5-(trifluoromethyl)-4H-isoxazol-3-yl]-N-[(4R)-2-(methylsulfamoyl)isoxazolidin-4-yl]benzamide]
≥ 80%: mortality at 200 ppm (Myzus persicae) | percent effect (mortality or growth inhibition) at 200 ppm (Diabrotica balteata) | mortality at 200 ppm (Spodoptera littoralis [1]) | percent effect (mortality or growth inhibition) at 200 ppm (Plutella xylostella) | percent control (mortality, anti-feedant effect or growth inhibition) at 12.5 ppm (Spodoptera littoralis [2]) | mortality at 200 ppm (Thrips tabaci) | mortality at 200 ppm (Tetranychus urticae) | percent effect (mortality or growth inhibition) at 200 ppm (Euschistus heros)

CS(=O)(=O)N1C[C@@H](NC(=O)c2ccc(C3=NO[C@@](c4cc(Cl)cc(Cl)c4)(C(F)(F)F)C3)cc2Cl)CO1 [Compound A116]
≥ 80%: mortality at 200 ppm (Myzus persicae) | percent effect (mortality or growth inhibition) at 200 ppm (Diabrotica balteata) | mortality at 200 ppm (Spodoptera littoralis [1]) | percent effect (mortality or growth inhibition) at 200 ppm (Plutella xylostella) | percent control (mortality, anti-feedant effect or growth inhibition) at 12.5 ppm (Spodoptera littoralis [2]) | mortality at 200 ppm (Thrips tabaci) | mortality at 200 ppm (Tetranychus urticae) | percent effect (mortality or growth inhibition) at 200 ppm (Euschistus heros)

CCS(=O)(=O)N1C[C@@H](NC(=O)c2ccc(C3=NO[C@@](c4cc(Cl)cc(Cl)c4)(C(F)(F)F)C3)cc2Cl)CO1 [Compound A117]
≥ 80%: mortality at 200 ppm (Myzus persicae) | percent effect (mortality or growth inhibition) at 200 ppm (Diabrotica balteata) | mortality at 200 ppm (Spodoptera littoralis [1]) | percent effect (mortality or growth inhibition) at 200 ppm (Plutella xylostella) | percent control (mortality, anti-feedant effect or growth inhibition) at 12.5 ppm (Spodoptera littoralis [2]) | mortality at 200 ppm (Thrips tabaci) | mortality at 200 ppm (Tetranychus urticae) | percent effect (mortality or growth inhibition) at 200 ppm (Euschistus heros)

CCS(=O)(=O)N1C[C@@H](NC(=O)c2ccc(C3=NO[C@@](c4cc(Cl)c(Cl)c(Cl)c4)(C(F)(F)F)C3)cc2C)CO1 [Compound A118]
≥ 80%: mortality at 200 ppm (Myzus persicae) | percent effect (mortality or growth inhibition) at 200 ppm (Diabrotica balteata) | mortality at 200 ppm (Spodoptera littoralis [1]) | percent effect (mortality or growth inhibition) at 200 ppm (Plutella xylostella) | percent control (mortality, anti-feedant effect or growth inhibition) at 12.5 ppm (Spodoptera littoralis [2]) | mortality at 200 ppm (Thrips tabaci) | mortality at 200 ppm (Tetranychus urticae) | percent effect (mortality or growth inhibition) at 200 ppm (Euschistus heros)
